Measured values taken from a melting point compilation (Tetko et al.; mined from patent text by program, amines drawn as free bases though some values may be those of a salt).

| Compound | melting point [°C] |
| --- | --- |
| CCCCNC(=O)c1ccco1 | 43.8 |
| O=c1[nH]c(Cl)nc2c1ncn2COCCO | > 310 |
| CCN(CC)CCSc1nc2ccccc2c(=O)n1-c1ccccc1 | 84.8 to 86.8 |
| CC(C)(C)c1ccc2c(Cc3cccc4ccccc34)c3cc(C(C)(C)C)ccc3c(Cc3cccc4ccccc34)c2c1 | 285 |
| CN(C)C=C(C#N)CNC=O | 90 |
| c1ccc2c(c1)NC1CCCc3onc-2c31 (stereo not drawn) | 152 to 154 |
| CC=C1CCC2C3CC=C4CC(OC(C)=O)CC(OC(C)=O)C4(C)C3CCC12C (stereo not drawn) | 90 to 91 |
| NC(=O)NCCN1CCC(O[N+](=O)[O-])CC1 | 114 to 116 |
| CCOC(=O)c1sc(SC(C)C)c2c1CCC(N=[N+]=[N-])C2=O (stereo not drawn) | 118 to 119 |
| O=C(CCC12CCC(=O)N1C(=O)CC2)OCc1ccc(Cl)cc1 | 141 to 142 |
| Cn1nnnc1SCC(=O)C12CC3CC(CC(C3)C1)C2 | 112 to 113 |
| CC(C)(C)C1=CC(=O)C=CC1=O | 55 to 60 |
| CCOC(=O)c1cccc(Sc2nc(C)c(CC(=O)O)s2)n1 | 140 to 142 |
| CC(C)(C)NC(=O)Nc1nc2nc(N)ncc2cc1-c1c(F)cccc1F | > 300 |
| CC1=C(C)C(=O)N(C2CCC(O)CC2)C1=O (stereo not drawn) | 109 to 111 |
| CC(C)(Cc1ccc(Cl)cc1Cl)C(=O)Cn1cncn1 | 85 |
| N#Cc1ccc(N2CCC(CCCO)CC2)c2ccccc12 | 114 to 115 |
| CC1(C)Oc2cc(C#N)c(C#N)cc2O1 | 202 to 203 |
| C=C(C)Cc1c(O)c(C)c(C)c2c1CC(C)N2C=O (stereo not drawn) | 133 to 135 |
| Cc1cc2c(c3c1NC(=O)CC3)O[C@@H](CN)[C@@H]2CO (racemic) | > 300 |

| Compound | melting point [°C] |
| --- | --- |
| O=C(O)c1cccnc1Oc1cccc(Cl)c1 | 161 to 164 |
| CC(=O)N1C(C)(C)CC(OC(=O)CC(c2cc(C(C)(C)C)c(O)cc2C)c2cc(C(C)(C)C)c(O)cc2C)CC1(C)C | 270 |
| CCCCc1ccc(-c2ccc(OCC(C)CC)nn2)cc1 (stereo not drawn) | 94 |
| COC(=O)c1cccnc1Cn1cccc1C=O | 91 to 93 |
| CNC(CSCC(=O)c1ccc2[nH]c3ncc(Cl)cc3c2c1)NC | 176 to 177 |
| Cc1ccc(NC(N)=S)nc1 | 178 to 181 |
| CCCc1nc2ccccc2[nH]1 | 160 to 162 |
| CCCNCC(O)c1ccc(S(C)(=O)=O)cc1 (stereo not drawn) | 120 to 123 |
| Oc1cc(CCl)ncn1 | 164 to 166 |
| COc1ccc(OC)c(C2OC(=O)c3c(OC)ccc(C)c32)c1 (stereo not drawn) | 121 to 123 |
| O=[N+]([O-])c1ccc(C=COC=Cc2ccc([N+](=O)[O-])cc2)cc1 | 59 to 61 |
| CCOCc1nc2c(N)nc(C)c(C)c2n1CCCNC(=O)N1CCOCC1 | 140 to 142 |
| CC1(C)CC(=O)c2c(C3CCC3)sc(C#N)c2C1 | 65 to 68 |
| CNCc1nc(CSCCNC(=C[N+](=O)[O-])NC)cs1 | 105 to 107 |
| CC(=O)C(C)Sc1cc(C(C)(C)C)c(O)c(C(C)(C)C)c1 (stereo not drawn) | 94 to 97 |
| CCC1CCC(=O)C=C1c1ccc(OCC(=O)OC(C)(C)C(=O)O)c(Cl)c1Cl (stereo not drawn) | 167 to 168 |
| Cc1cc(CCCCCCCOc2ccc(C3=NCCN3)cc2)on1 | 118 to 119 |
| CCCCc1nc2c(N)nc3ccccc3c2n1CCNS(C)(=O)=O | 210 to 211 |
| COc1ccc(-c2ccc(N)cc2)cc1OC1CCCC1 | 94 to 95 |
| O=Cc1ccc(-c2ccc(Br)cc2)nc1 | 108 to 109 |

| Compound | melting point [°C] |
| --- | --- |
| CC(=O)c1cc(S(N)(=O)=O)ccc1F | 172 to 173 |
| Nc1ncnc2c1ncn2OCC(O)CCP(=O)(O)O (stereo not drawn) | 265 to 267 |
| COC(=O)CNC(=O)C(CS)NC(=O)CNC(=O)CS (stereo not drawn) | 149 to 151 |
| CC(C)(C)C(=O)NC1CCC(c2cc(Nc3cccc(C(F)(F)F)c3)n[nH]2)C1 (stereo not drawn) | 249 |
| O=C1Nc2ccccc2Nc2cscc21 | 233 to 234 |
| CC(=O)c1cc(C#N)c(=O)n(C=CN(C)C)c1 | 267 to 270 |
| CCOP(=O)(COc1ccc2c(c1)[nH]c1ccccc12)OCC | 159 |
| N#CN=C(NCc1ccccc1)Nc1cccnc1 | 189 to 190 |
| Cc1[nH]cnc1CSCCNc1nnc(Cc2cccnc2)c(=O)[nH]1 | 232 to 233 |
| N#Cc1ccc(N(Cc2ccc(O)cc2)n2cncn2)cc1-c1ccccc1 | 169 to 170 |
| O=C(Cc1ccc(Cl)cc1Cl)c1cccnc1 | 78 to 79 |
| N#CCC(O)(c1ccccc1)c1ccccc1 | 136 to 138 |
| CS(=O)(=O)Nc1cccc(OCC#N)c1 | 91 to 92 |
| CCOC(=O)C(C)(C)C(=O)C(Oc1ccc(Cl)cc1)n1ccnc1 (stereo not drawn) | 88 |
| CN(C)c1cccc(CN2CC=C(c3c[nH]c4ccc(Cl)cc34)CC2)c1 | 193 to 195 |
| CC[C@H](Cn1ncnn1)n1cnc2cc3c(=O)n([C@H](C)Cn4ncnn4)nnc3cc2c1=O | 80 to 82 |
| CCCC(=O)Oc1ccc(-c2nc(-c3ccc(N(C)C)cc3)c(C)[nH]2)cc1OC | 62 to 64 |
| COc1cccc(N(C)C(=O)Oc2ccc(Cl)c(C(C)(C)C)c2)n1 | 54 to 56 |

The next lines start with the values.

| melting point [°C] | Compound |
| --- | --- |
| 256 to 258 | COc1cc2c(cc1-c1c(C)nn(C)c1C)-c1c(-c3cccs3)c3c(n1CC2)C(=O)N(C(C)C)CCN(C(=O)CCC(F)(F)F)C3 |
| 195 to 201 | COc1cc(/C=C/C(=O)Nc2ccccc2C(=O)O)ccc1OCCN1CCOCC1 |
| > 300 | Cc1c(-c2ccc([N+](=O)[O-])cc2)sc2[nH]c(=O)n(-c3ccccc3)c(=O)c12 |
| 94 to 95 | O=C(CCl)N1CC(c2ccc(Cl)cc2)Sc2ccccc21 (stereo not drawn) |
| 217 | O=C(C(c1ccc(Cl)cc1)c1c(Cl)cc(-n2ncc(=O)[nH]c2=O)cc1Cl)N1CCCCC1 (stereo not drawn) |
| 168 to 170 | CCn1cc(C(=O)NCc2ccc(Cl)cc2)c(=O)c2cc(C#CCOC(=O)CN3CCOCC3)sc21 |
| 78 to 79 | N#Cc1c(F)cccc1-c1ccccc1 |
| 118 | COc1ccc(F)c(/C=C/CN2C(=O)c3ccccc3C2=O)c1 |
| 178 to 179 | O=C(CCCc1ccccc1)NCc1ccc(C(=O)O)cc1 |
| 100 to 104 | O=c1n(-c2ccc(Cl)cc2Cl)nc2n1CCCC2 |
| 132 to 134 | CCCc1c(OC(=S)N(C)C)ccc2c(=O)cc(C(=O)OCC)oc12 |
| > 230 | COc1ccc(C(C)(C)C)cc1NC(=O)Nc1ccc(-c2cnc3c(c2)NC(=O)CN3)c2ccccc12 |
| 124 to 126 | CCOCc1nc2c(N)nc3ccccc3c2n1CCCNC(=O)OC(C)(C)C |
| 208 to 210 | O=C1CCCc2c1c1cccc3c1n2CC3 |
| 189 to 190 | COc1cc2c(cc1OC)CN(CCCOc1ccc(NC(=O)c3ccc4ccccc4c3)cc1)CC2 |
| 160 to 161 | CN1C(=O)C(=O)c2cc(S(=O)(=O)N3CCC[C@H]3COc3ccccc3)ccc21 |
| 128 | Cc1ccc2c(c1)cc(CCCC(=O)O)n2S(=O)(=O)c1ccc2ncsc2c1 |
| 223 to 224 | CC1Cc2c(c3cccnc3n(-c3ccccc3)c2=O)O1 (stereo not drawn) |
| 114 | O=C(c1cccnc1)c1cc(-c2ccc(Cl)cc2)c(N2CCOCC2)s1 |
| > 250 | CS(=O)(=O)c1ccc(-c2cnn(Cc3ccccc3)c(=O)c2-c2ccc3c(c2)COC3=O)cc1 |
| 70 to 73 | CC(C)Oc1cccc(CC(=O)N2CCCC(CCN3CCC(C(=O)c4nc5ccccc5n4Cc4ccc(F)cc4)CC3)(c3ccc(Cl)c(Cl)c3)C2)c1 (stereo not drawn) |
| 193 | O=c1c(O)c(-c2ccccc2-c2ccc(CNc3nc(C(F)(F)F)nc4c3CCCC4)cc2)c1=O |
| 113 to 115 | OCc1cccc(-c2nn(-c3ccc(F)cc3F)c3c2C2CCC3C2)c1 (stereo not drawn) |

| melting point [°C] | Compound |
| --- | --- |
| 198 | COc1cccc(N(CC(=O)O)C(=O)CN2C(=O)c3ccccc3C2=O)c1 |
| 95.5 to 97 | O=C(Cc1ccccc1NS(=O)(=O)C(F)(F)F)N1CCOCC1 |
| 198 | Cc1cccc(NC(=O)NC(Cc2ccccc2)C(=O)N(CC(=O)OC(C)(C)C)c2ccccc2)c1 (racemic) |
| 201 to 202 | Cc1oc(=O)oc1CN1CCN(c2cc3c(cc2F)c(=O)c(C(=O)O)c2n3C(c3ccccc3)S2)CC1 (stereo not drawn) |
| 149 to 150 | O=C(NCCO)c1cccc(-c2ccc3c(c2)N(Cc2cc(Cl)ccc2Cl)CC3)c1 |
| 136 | CC(C)Oc1c(C(=O)O)n(C)c2ccc(OCc3ccccc3)cc12 |
| 277 to 280 | N#Cc1c(N)nc2ccc([N+](=O)[O-])cc2c1NCc1cccs1 |
| 230 to 235 | O=C1NCCN(C(c2ccccc2)(c2ccccc2)c2ccccc2)C1=O |
| 123 to 124 | CCN1CN(c2cccc(F)c2)c2ncccc2C1=O |
| 176 to 178 | COc1ccc(C(=O)Nc2ccc(F)c(F)c2)cc1NCc1ccccc1 |
| 201 to 202 | O=c1c2cc(F)c(F)cc2n(-c2ccc(F)cc2)c(=O)n1OCc1ccccc1 |
| 62 to 64 | CC(=O)/C=C/Sc1ccc2ccccc2c1 |
| 156 | Cc1c2n(c3ccc(Br)cc13)CCC(Br)C2=O (stereo not drawn) |
| 215 to 217 | COc1ccc(C=CC2=NN(c3ccc([N+](=O)[O-])cc3)C(c3ccc(OC)c(O)c3)C2)cc1O (stereo not drawn) |
| 172 to 173 | CC(=O)Oc1ccc(-c2nc3n(c2-c2ccc(OC(C)=O)cc2)CCS3)cc1 |
| 117 to 120 | CCC(C(=O)N(C)C)n1nc(-c2ccccc2)cc1C (stereo not drawn) |
| 80 to 83 | CCC(CC)(CC(=O)Nc1cccc(SCc2ccc3cccc(F)c3n2)c1)C(=O)O |
| 207 to 211 | CNC(=O)CCC1CCN(Cc2cnc3cc(NC(=O)c4ccc(-c5ccc(F)cc5)cc4)c(C)cc3c2)CC1 |
| 169 to 171 | CCC1c2ccc(C#N)n2-c2ccc(F)cc2N1S(=O)(=O)c1ccc(O)cc1 (stereo not drawn) |
| 101 to 102 | O=C(CCl)N1CCC(c2noc3cc(F)ccc23)CC1 |
| 281 | Cc1ccc(C(=O)C2=C(O)C(=O)N(c3ccc(N(C)C)nn3)C2c2ccc(C(C)C)cc2)cc1 (stereo not drawn) |
| 211 to 214 | COc1c(N2C[C@@H](N)[C@@H](C3CC3)C2)c(F)cc2c(=O)c(C(=O)O)cn([C@@H]3C[C@@H]3F)c12 |
